Experimental data reported in the supplement of paper PMC10307832.

Assays:
Test in all cases: relative viability (nuclei count vs DMSO), 5 days (fraction); higher = more cells survive
[1] = compound: C1=CC=C2C(=C1)N=C(S2)C(C#N)C3=NC(=NC=C3)NCCC4=CN=CC=C4 + CC(=O)c1c(C)c2cnc(Nc3ccc(N4CCNCC4)cn3)nc2n(C2CCCC2)c1=O [Palbociclib] (partner 0.5 µM)
How it was run: (§1)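 Lung cancer cell lines were seeded in 1536-well plates and dosed by pin tool the next day, with either a single drug or a fixed anchor-drug dose combined with five library-drug doses (not always all listed) spaced in √10 steps. Five days later, one step fixed the cells and stained their nuclei (final 0.05% Triton X-100, 1% formaldehyde, 1 ug/ml Hoechst), and nuclei were counted on 4× images. Relative viability is the nuclei count in treated wells divided by the count in vehicle wells, and each value is the median of duplicate plates.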

[2] = compound: C1=CC=C2C(=C1)N=C(S2)C(C#N)C3=NC(=NC=C3)NCCC4=CN=CC=C4 + NC(=O)Nc1cc(-c2cccc(F)c2)sc1C(=O)N[C@H]1CCCNC1 [AZD7762] (partner 0.2 µM)
How it was run: as §1

CUDC-101 + Trametinib = compound: C#Cc1cccc(Nc2ncnc3cc(OC)c(OCCCCCCC(=O)NO)cc23)c1 [CUDC-101] + CC(=O)Nc1cccc(-n2c(=O)n(C3CC3)c(=O)c3c(Nc4ccc(I)cc4F)n(C)c(=O)c(C)c32)c1 [Trametinib] (partner 0.02 µM)
How it was run: as §1

CUDC-101 + Crizotinib = compound: C#Cc1cccc(Nc2ncnc3cc(OC)c(OCCCCCCC(=O)NO)cc23)c1 [CUDC-101] + C[C@@H](Oc1cc(-c2cnn(C3CCNCC3)c2)cnc1N)c1c(Cl)ccc(F)c1Cl [Crizotinib] (partner 1 µM)
How it was run: as §1

Row | Cell Line | relative viability ([1]; first compound 0.005 µM) | relative viability ([1]; first compound 0.01581 µM) | relative viability ([1]; first compound 0.05 µM) | relative viability ([1]; first compound 0.1581 µM) | relative viability ([1]; first compound 0.5 µM) | relative viability ([2]; first compound 0.005 µM) | relative viability ([2]; first compound 0.01581 µM) | relative viability ([2]; first compound 0.05 µM) | relative viability ([2]; first compound 0.1581 µM) | relative viability ([2]; first compound 0.5 µM) | relative viability (CUDC-101 + Trametinib; first compound 0.01 µM) | relative viability (CUDC-101 + Trametinib; first compound 0.03162 µM) | relative viability (CUDC-101 + Trametinib; first compound 0.1 µM) | relative viability (CUDC-101 + Trametinib; first compound 0.3162 µM) | relative viability (CUDC-101 + Trametinib; first compound 1 µM) | relative viability (CUDC-101 + Crizotinib; first compound 0.01 µM) | relative viability (CUDC-101 + Crizotinib; first compound 0.03162 µM) | relative viability (CUDC-101 + Crizotinib; first compound 0.1 µM) | relative viability (CUDC-101 + Crizotinib; first compound 0.3162 µM) | relative viability (CUDC-101 + Crizotinib; first compound 1 µM)
1 | HOP-62 | 0.412 | 0.571 | 0.432 | 0.471 | 0.474 | 0.271 | 0.824 | 0.705 | 0.542 | 0.534 | 0.362 | 0.361 | 0.403 | 0.441 | 0.346 | 0.95 | 0.753 | 1.03 | 0.925 | 0.666
2 | NCI-H2085 | 0.428 | 0.465 | 0.415 | 0.472 | 0.471 | 0.833 | 0.956 | 1.02 | 1.07 | 0.905 | 0.607 | 0.496 | 0.706 | 0.604 | 0.505 | 0.865 | 0.861 | 0.772 | 0.779 | 0.682
3 | NCI-H2087 | 0.24 | 0.208 | 0.214 | 0.261 | 0.227 | 1.42 | 1.39 | 1.41 | 1.45 | 1.06 | 0.224 | 0.225 | 0.204 | 0.195 | 0.185 | 0.798 | 0.959 | 0.804 | 0.855 | 0.642
4 | CAL-12T | 0.422 | 0.327 | 0.429 | 0.673 | 0.41 | 0.571 | 0.575 | 0.628 | 0.608 | 0.543 | 0.311 | 0.381 | 0.373 | 0.41 | 0.335 | 0.67 | 0.734 | 0.689 | 0.701 | 0.584
5 | A-427 | 0.542 | 0.5 | 0.519 | 0.525 | 0.56 | 0.816 | 0.727 | 0.682 | 0.764 | 0.645 | 0.763 | 0.743 | 0.736 | 0.733 | 0.461 | 1.05 | 0.868 | 0.773 | 0.829 | 0.579
6 | NCI-H1975 | 0.565 | 0.538 | 0.656 | 0.832 | 0.408 | 0.639 | 0.635 | 0.711 | 0.743 | 0.506 | 0.38 | 0.322 | 0.347 | 0.692 | 0.319 | 1.05 | 1.02 | 0.964 | 1.1 | 0.872
7 | NCI-H1993 | 0.651 | 0.64 | 0.699 | 0.708 | 0.694 | 0.664 | 0.749 | 1.03 | 1.01 | 0.7 | 0.474 | 0.682 | 0.546 | 0.527 | 0.553 | 0.93 | 0.783 | 0.766 | 0.754 | 0.77
8 | 201T | 0.292 | 0.354 | 0.354 | 0.383 | 0.325 | 0.542 | 0.674 | 0.69 | 0.707 | 0.56 | 0.734 | 0.711 | 0.714 | 0.69 | 0.701 | 1 | 1.02 | 0.979 | 1.06 | 0.97
9 | LK-2 | 0.619 | 0.914 | 0.555 | 0.801 | 0.715 | 0.347 | 0.41 | 0.488 | 0.454 | 0.445 | 0.715 | 0.625 | 0.884 | 0.592 | 0.392 | 0.249 | 0.229 | 0.21 | 0.246 | 0.225
10 | NCI-H647 | 0.376 | 0.407 | 0.372 | 0.378 | 0.442 | 0.27 | 0.281 | 0.513 | 0.512 | 0.372 | 0.461 | 0.411 | 0.543 | 0.538 | 0.443 | 1.27 | 1.03 | 1.09 | 0.909 | 0.533
11 | HCC-78 | 0.333 | 0.431 | 0.506 | 0.485 | 0.478 | 0.619 | 0.593 | 0.739 | 0.697 | 0.576 | 0.781 | 0.711 | 0.864 | 0.667 | 0.545 | 0.365 | 0.298 | 0.354 | 0.301 | 0.103
12 | NCI-H727 | 0.508 | 0.594 | 0.64 | 0.658 | 0.673 | 0.788 | 0.533 | 0.667 | 0.626 | 0.618 | 0.394 | 0.374 | 0.418 | 0.371 | 0.353 | 0.913 | 0.931 | 0.738 | 0.647 | 0.361
13 | BEN | 0.417 | 0.472 | 0.473 | 0.473 | 0.444 | 0.759 | 0.609 | 0.689 | 0.85 | 0.774 | 1.03 | 0.889 | 0.895 | 0.972 | 0.706 | 1.04 | 0.772 | 0.933 | 0.809 | 0.579
14 | NCI-H650 | 0.321 | 0.336 | 0.301 | 0.321 | 0.323 | 1.12 | 1.07 | 0.891 | 1.23 | 1.09 | 1.06 | 0.864 | 1.08 | 1.16 | 0.911 | 0.835 | 0.783 | 0.771 | 0.532 | 0.454
15 | NCI-H441 | 0.231 | 0.184 | 0.232 | 0.241 | 0.187 | 1.02 | 1.14 | 1.28 | 1.02 | 0.986 | 0.639 | 0.439 | 0.371 | 0.65 | 0.41 | 0.833 | 0.739 | 0.87 | 0.843 | 0.514
16 | NCI-H1915 | – | 0.532 | 0.498 | 0.569 | 0.523 | – | 0.679 | 0.698 | 0.693 | 0.699 | 0.308 | 0.287 | 0.305 | 0.314 | 0.273 | 0.982 | 0.941 | 0.889 | 0.837 | 0.627
